Laboratory results from publication PMC6321475, “Synthesis and Evaluation of the 4-Substituted 2-Hydroxy-5-Iodochalcones and Their 7-Substituted 6-Iodoflavonol Derivatives for Inhibitory Effect on Cholinesterases and β-Secretase” (International Journal of Molecular Sciences, 2018).

Assays:
Format in all cases: biochemical
[1] = biological target: acetylcholinesterase (AChE) (Homo sapiens, UniProt P22303); test: biochemical
[2] = biological target: butyrylcholinesterase (BChE) (Homo sapiens, UniProt P06276); test: biochemical
Sequence of butyrylcholinesterase (BChE) (P06276 29-602): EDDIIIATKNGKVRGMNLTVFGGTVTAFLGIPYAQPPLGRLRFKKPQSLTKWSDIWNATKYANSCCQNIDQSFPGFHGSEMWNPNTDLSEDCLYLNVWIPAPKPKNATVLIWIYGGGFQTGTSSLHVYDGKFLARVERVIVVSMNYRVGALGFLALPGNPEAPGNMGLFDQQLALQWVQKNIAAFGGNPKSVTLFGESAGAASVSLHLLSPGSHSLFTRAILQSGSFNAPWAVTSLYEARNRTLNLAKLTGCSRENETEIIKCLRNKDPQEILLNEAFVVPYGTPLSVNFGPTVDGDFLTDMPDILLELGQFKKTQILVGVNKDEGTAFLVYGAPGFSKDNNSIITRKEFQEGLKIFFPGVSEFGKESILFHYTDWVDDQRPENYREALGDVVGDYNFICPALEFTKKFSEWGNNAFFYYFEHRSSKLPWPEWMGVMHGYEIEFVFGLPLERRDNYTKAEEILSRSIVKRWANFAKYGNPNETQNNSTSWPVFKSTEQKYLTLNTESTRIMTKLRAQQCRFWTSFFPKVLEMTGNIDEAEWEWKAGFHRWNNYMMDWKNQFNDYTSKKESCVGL

[3] = biological target: T1, BACE-1 (Homo sapiens, UniProt P56817); test: Kinetic study against BACE-1 (Lineweaver-Burk and Dixon plots); conditions: Dixon plot intercept
T1 construct: purchased Pan Vera; host or cells: baculovirus-expressed
T1 sequence (P56817 46-501): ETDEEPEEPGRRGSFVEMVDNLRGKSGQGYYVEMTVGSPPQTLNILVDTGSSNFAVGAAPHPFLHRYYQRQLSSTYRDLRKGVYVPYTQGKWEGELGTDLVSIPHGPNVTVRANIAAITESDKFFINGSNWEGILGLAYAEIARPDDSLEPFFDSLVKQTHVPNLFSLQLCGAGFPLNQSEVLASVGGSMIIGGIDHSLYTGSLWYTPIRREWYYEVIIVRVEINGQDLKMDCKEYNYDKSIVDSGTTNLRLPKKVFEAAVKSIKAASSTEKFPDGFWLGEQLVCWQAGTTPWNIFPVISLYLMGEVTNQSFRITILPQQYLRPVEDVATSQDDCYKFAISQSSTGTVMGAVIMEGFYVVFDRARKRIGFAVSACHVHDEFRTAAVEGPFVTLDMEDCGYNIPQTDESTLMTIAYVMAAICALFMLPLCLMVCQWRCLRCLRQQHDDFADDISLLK
Procedure: The kinetics assays were conducted according to the manufacturer’s instructions similarly to the inhibitory assay except that change in fluorescence over time was monitored at 590 nm without the addition of the stop solution. Each substrate (0.15, 0.30, 0.45 µM) and compound (0, 4, 8 and 16 µM) concentration pair were prepared in triplicate and analyzed. The Lineweaver Burk and Dixon plots were plotted as described in Section 3.7.1.

[4] = biological target: T1, BACE-1; test: In vitro BACE-1 inhibitory FRET assay; conditions: 60 min at 25 °C, pH 4.5
[5] = mean ± SD, three independent experiments

Sequence of acetylcholinesterase (AChE) (P22303 32-614): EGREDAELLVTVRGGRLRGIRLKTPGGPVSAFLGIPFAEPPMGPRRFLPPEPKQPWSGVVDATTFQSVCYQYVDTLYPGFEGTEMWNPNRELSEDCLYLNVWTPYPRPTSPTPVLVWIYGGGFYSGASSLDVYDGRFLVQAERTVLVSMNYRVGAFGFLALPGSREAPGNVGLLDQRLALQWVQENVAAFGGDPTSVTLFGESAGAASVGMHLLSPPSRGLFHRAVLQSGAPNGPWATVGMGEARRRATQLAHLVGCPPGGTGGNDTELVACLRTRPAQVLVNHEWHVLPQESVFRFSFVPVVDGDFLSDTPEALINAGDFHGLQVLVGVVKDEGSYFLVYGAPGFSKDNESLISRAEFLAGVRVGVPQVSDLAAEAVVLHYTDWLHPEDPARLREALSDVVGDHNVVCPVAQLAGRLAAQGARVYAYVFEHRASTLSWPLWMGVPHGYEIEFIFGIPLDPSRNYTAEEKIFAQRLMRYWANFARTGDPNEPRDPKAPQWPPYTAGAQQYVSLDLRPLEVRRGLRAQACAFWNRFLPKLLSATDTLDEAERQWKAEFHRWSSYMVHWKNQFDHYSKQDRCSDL

| SMILES | SI BChE/AChE [1] | IC50 [1, 5] | SI AChE/BChE [2] | IC50 [2, 5] | Ki [3] | IC50 [4] |
| --- | --- | --- | --- | --- | --- | --- |
| O=C(/C=C/c1ccc(F)cc1)c1cc(I)c(Br)cc1O [Compound 2j, (E)-1-(4-Bromo-2-hydroxy-5-iodophenyl)-3-(4-fluorophenyl)propenone] | 0.52 | 10.98 ± 0.03 µM | 1.92 | 5.73 ± 0.05 µM | 3.04 ± 2.31 µM | 4.7 µM |
| COc1ccc(-c2oc3cc(Br)c(I)cc3c(=O)c2O)cc1 [Compound 3l, 7-Bro.mo-3-hydroxy-6-iodo-2-(4-methoxyphenyl)-4H-chromen-4-one] | – | – | – | – | 1.21 ± 0.66 µM | 15.74 ± 0.12 µM |
